# Experimental data reported in patent US11236068B2, “Fused ring compounds” (Genentech, Inc., priority 2018, dated 2022).
# pEC50: −log10 of the molar value.
# Molecular target: K-Ras G12C (Homo sapiens (Human), UniProt P01116, G12C)
# Assay: Western blot assay for in cell alkylation of K-Ras G12C (HCC1171 cells)
# Type: cell-based
# Conditions: 18 hours at 37° C., 7 point dose response
# Experimental: HCC1171 cells were maintained in RPMI1640 supplemented with 10% FBS. Cells were plated in a 96-well plate at 20,000 cells/well and the following day compounds were added to the cells. After 18 hours at 37° C., cells were lysed in RIPA buffer (Sigma RO278) with 0.5% SDS and protease/phosphatase inhibitor cocktail. After through mixing to enable complete lysis, the lysates were cleared by centrifugation before 20 µl was transferred from each well and combined with loading buffer and reducing agent. After heating for 10 minutes at 95° C., […] of each sample was loaded onto a 4-20% Tris-Glycine gel and electrophoresed at 110V for 165 minutes in SDS-PAGE running buffer. Gels were transferred to a nitrocellulose membrane, blocked for 1 hour and stained overnight at 4° C. with primary antibody against K-Ras (polyclonal Proteintech 12063-1-AP). The membrane was then washed thoroughly and counterstained with anti-rabbit IRDye 800CW (LI-COR 926-32211) for one hour at room temperature. After final washes, the membrane was imaged on a LI-COR Odyssey CLx at medium resolution. […] To quantify this affect, the LICOR software was used to draw a rectangle over alkylated and unalkylated bands for each well and measured the total fluorescent intensity (FI) in each of these bands. The following formula was then used to calculate % alkylation: FI(alkylated)/(FI(alkylated)+FI(unalkylated))*100 for each well.
# A 7 point dose response curve was used to determine the IC50 for each compound. Cell alkylation data are presented below in Table 3.
# K-Ras G12C, sequence (P01116 other isoform, or with tags, fused parts or gaps G12C): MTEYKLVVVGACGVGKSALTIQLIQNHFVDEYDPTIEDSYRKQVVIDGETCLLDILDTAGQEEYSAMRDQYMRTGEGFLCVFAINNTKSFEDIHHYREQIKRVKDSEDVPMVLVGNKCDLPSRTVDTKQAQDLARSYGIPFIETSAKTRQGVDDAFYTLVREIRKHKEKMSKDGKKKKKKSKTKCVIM
row,pEC50,Structure (SMILES)
1,6.25,"C=CC(=O)N1CCN(c2ncnc3cc(-c4nc(N)cc5ccccc45)c(Cl)cc23)CC1 [Example 1, 1-[4-[7-(3-amino-1-isoquinolyl)-6-chloro-quinazolin-4-yl]piperazin-1-yl]prop-2-en-1-one]"
2,4.80,"C=CC(=O)N1CCN(c2ncnc3cc(-c4ncccc4C)c(Cl)cc23)CC1 [Example 2, 1-[4-[6-chloro-7-(3-methyl-2-pyridyl)quinazolin-4-yl]piperazin-1-yl]prop-2-en-1-one]"
3,4.68,"C=CC(=O)N1CCN(c2ncnc3cc(-c4nc(N)cc5cccnc45)c(Cl)cc23)CC1 [Example 3, 1-[4-[7-(6-amino-1,7-naphthyridin-8-yl)-6-chloro-quinazolin-4-yl]piperazin-1-yl]prop-2-en-1-one]"
4,< 4.52,"C=CC(=O)N1CCN(c2ncnc3cc(-c4nc(N)cc5cnccc45)c(Cl)cc23)CC1 [Example 4, 1-[4-[7-(3-amino-2,6-naphthyridin-1-yl)-6-chloro-quinazolin-4-yl]piperazin-1-yl]prop-2-en-1-one]"
5,5.55,"C=CC(=O)N1CCN(c2ncnc3cc(-c4nc(N)cc5c(Cl)cccc45)c(Cl)cc23)CC1 [Example 5, 1-[4-[7-(3-amino-5-chloro-1-isoquinolyl)-6-chloro-quinazolin-4-yl]piperazin-1-yl]prop-2-en-1-one]"
6,5.00,"C=CC(=O)N1CCN(c2ncnc3cc(-c4nc(N)cc5cc(OC)ccc45)c(Cl)cc23)CC1 [Example 6, 1-[4-[7-(3-amino-6-methoxy-1-isoquinolyl)-6-chloro-quinazolin-4-yl]piperazin-1-yl]prop-2-en-1-one]"
7,5.33,"C=CC(=O)N1CCN(c2ncnc3cc(-c4nc(N)cc(C)c4F)c(Cl)cc23)CC1 [Example 11, 1-(4-(7-(6-amino-3-fluoro-4-methylpyridin-2-yl)-6-chloroquinazolin-4-yl)piperazin-1-yl)prop-2-en-1-one]"
8,5.09,"C=CC(=O)N1CCN(c2nc(NC[C@@H](F)C(C)(C)O)nc3cc(-c4nc(N)cc(C)c4F)c(Cl)cc23)CC1 [Example 12, (R)-1-(4-(7-(6-amino-3-fluoro-4-methylpyridin-2-yl)-6-chloro-2-((2-fluoro-3-hydroxy-3-methylbutyl)amino)quinazolin-4-yl)piperazin-1-yl)prop-2-en-1-one]"
9,5.89,"C=CC(=O)N1CCN(c2ncnc3cc(-c4nc(N)cc(C)c4C)c(Cl)cc23)CC1 [Example 13, 1-(4-(7-(6-amino-3,4-dimethylpyridin-2-yl)-6-chloroquinazolin-4-yl)piperazin-1-yl)prop-2-en-1-one]"
10,6.40,"C=CC(=O)N1CCN(c2ncnc3cc(-c4nc(N)cc(C)c4Cl)c(Cl)cc23)CC1 [Example 14, 1-(4-(7-(6-amino-3-chloro-4-methylpyridin-2-yl)-6-chloroquinazolin-4-yl)piperazin-1-yl)prop-2-en-1-one]"
11,5.55,"C=CC(=O)N1CCN(c2ncnc3cc(-c4nc(N)ccc4C)c(Cl)cc23)CC1 [Example 15, 1-(4-(7-(6-amino-3-methylpyridin-2-yl)-6-chloroquinazolin-4-yl)piperazin-1-yl)prop-2-en-1-one]"
12,5.09,"C=CC(=O)N1CCN(c2ncnc3cc(-c4nc(NC(C)=O)ccc4C)c(Cl)cc23)CC1 [Example 16, N-(6-[6-chloro-4-[4-(prop-2-enoyl)piperazin-1-yl]quinazolin-7-yl]-5-methylpyridin-2-yl)acetamide]"
13,5.64,"C=CC(=O)N1CCN(c2ncnc3cc(-c4nc(N)ccc4C(F)(F)F)c(N4CCC4)cc23)CC1 [Example 20, 1-[4-[7-[6-amino-3-(trifluoromethyl)-2-pyridyl]-6-(azetidin-1-yl)quinazolin-4-yl]piperazin-1-yl]prop-2-en-1-one]"
14,5.55,"C=CC(=O)N1CCN(c2ncnc3cc(-c4nc(N)ccc4C(F)(F)F)c(C(C)(F)F)cc23)CC1 [Example 21, 1-(4-(7-(6-amino-3-(trifluoromethyl)pyridin-2-yl)-6-(1,1-difluoroethyl)quinazolin-4-yl)piperazin-1-yl)prop-2-en-1-one]"
